# According to ChEMBL document CHEMBL5241112, “Insights into the recent progress in the medicinal chemistry of pyranopyrimidine analogs” (RSC Med Chem, 2022):
# Experiments:
# [1] = Cytotoxicity against human HDF cells assessed as reduction in cell viability by MTT assay; type: toxicity, cell-based; conditions: HDF cells (NHDF cell line)
# HT-29 = assay: Antiproliferative activity against human HT-29 cells assessed as reduction in cell viability by MTT assay; type: functional, cell-based
# [2] = tested on: Mycobacterium tuberculosis; assay: Antitubercular activity against Mycobacterium tuberculosis H37Rv assessed as bacterial growth inhibition at 100 ug/ml; type: functional
# Aspergillus fumigatus [3] = assay: Antifungal activity against Aspergillus fumigatus MTCC 227 assessed as fungal growth inhibition by broth microdilution method; type: functional
# Vibrio cholerae = assay: Antibacterial activity against Vibrio cholerae MTCC 3906 assessed as bacterial growth inhibition by broth microdilution method; type: functional
# [4] = tested on: Mycobacterium tuberculosis; assay: Antitubercular activity against Mycobacterium tuberculosis H37Rv assessed as bacterial growth inhibition at 250 ug/ml; type: functional
# Clostridium tetani = assay: Antibacterial activity against Clostridium tetani MTCC 449 assessed as bacterial growth inhibition by broth microdilution method; type: functional
# Plasmodium falciparum = assay: microbe, parasite or virus in culture
# [5] = Selectivity index, ratio of CC50 for cytotoxicity against human MT4 cells to EC50 for antiviral activity against HIV2 ROD infected in human MT4 cells; type: toxicity, cell-based; conditions: read-out: Selectivity Index
# [6] = tested on: Human immunodeficiency virus 2; assay: Antiviral activity against HIV2 ROD infected in human MT4 cells assessed as reduction in virus-induced cytopathic effect by MTT assay; type: functional, organism-based; conditions: Human immunodeficiency virus 2, ROD
# [7] = tested on: Human immunodeficiency virus 1; assay: Antiviral activity against HIV1 IIIB infected in human MT4 cells assessed as reduction in virus-induced cytopathic effect by MTT assay; type: functional, organism-based; conditions: Human immunodeficiency virus 1, IIIB
# [8] = Selectivity index, ratio of CC50 for cytotoxicity against human MT4 cells to EC50 for antiviral activity against HIV1 IIIB infected in human MT4 cells; type: toxicity, cell-based; conditions: read-out: Selectivity Index
# [9] = Cytotoxicity against human MT4 cells assessed as reduction in cell viability by MTT assay; type: toxicity, cell-based
# [10] = biological target: Alpha-glucosidase (Mus musculus); assay: Inhibition of mouse alpha-glucosidase assessed as decrease in release of p-nitrophenol using pNPG as substrate preincubated for 10 mins followed by substrate addition and measured after 30 mins by spectroscopic analysis
# Alpha-glucosidase = Alpha-glucosidase (Saccharomyces cerevisiae S288c, UniProt P53341+P38158+P07265); assay: Inhibition of Saccharomyces cerevisiae alpha-glucosidase assessed as decrease in release of p-nitrophenol using pNPG as substrate incubated for 10 mins by spectroscopic analysis; type: protein assay
# Staphylococcus aureus = assay: Antibacterial activity against Staphylococcus aureus ATCC6538-P assessed as diameter of inhibition zone at 50 mg/ml incubated for 24 hrs by paper disk diffusion method; type: functional; conditions: read-out: DIZ
# Streptococcus pneumoniae [11] = assay: Antibacterial activity against Streptococcus pneumoniae ATCC BAA-255/R6 assessed as diameter of inhibition zone at 50 mg/ml incubated for 24 hrs by paper disk diffusion method; type: functional; conditions: read-out: DIZ
# Aspergillus fumigatus [12] = assay: microbe, parasite or virus in culture; type: functional; conditions: ATCC204305, dose 50 mg/ml, time 24 hrs, read-out: DIZ
# Klebsiella pneumoniae = assay: Antibacterial activity against Klebsiella pneumoniae MGH 78578 assessed as diameter of inhibition zone at 50 mg/ml incubated for 24 hrs by paper disk diffusion method; type: functional; conditions: read-out: DIZ
# cells = conditions: Homo sapiens, Macrophage
# [13] = biological target: Polyunsaturated fatty acid 5-lipoxygenase (Homo sapiens, UniProt P09917); assay: Inhibition of 5-LOX (unknown origin) by colorimetric analysis
# Streptococcus pneumoniae [14] = assay: Antibacterial activity against Streptococcus pneumoniae ATCC BAA-255/R6 assessed as inhibition of bacterial growth incubated for 24 hrs by disk diffusion method; type: functional
# [15] = Inhibition of Escherichia coli topoisomerase 4 assessed as reduction in decatenation
# Escherichia coli = assay: Antibacterial activity against Escherichia coli MTCC 443 assessed as bacterial growth inhibition by broth microdilution method; type: functional
# Salmonella typhimurium = assay: Antibacterial activity against Salmonella typhimurium MTCC 98 assessed as bacterial growth inhibition by broth microdilution method; type: functional, Salmonella enterica subsp. enterica serovar Typhimurium; conditions: Salmonella enterica
# Polyunsaturated fatty acid 5-lipoxygenase, sequence (P09917 whole entry, the tested form may be a part): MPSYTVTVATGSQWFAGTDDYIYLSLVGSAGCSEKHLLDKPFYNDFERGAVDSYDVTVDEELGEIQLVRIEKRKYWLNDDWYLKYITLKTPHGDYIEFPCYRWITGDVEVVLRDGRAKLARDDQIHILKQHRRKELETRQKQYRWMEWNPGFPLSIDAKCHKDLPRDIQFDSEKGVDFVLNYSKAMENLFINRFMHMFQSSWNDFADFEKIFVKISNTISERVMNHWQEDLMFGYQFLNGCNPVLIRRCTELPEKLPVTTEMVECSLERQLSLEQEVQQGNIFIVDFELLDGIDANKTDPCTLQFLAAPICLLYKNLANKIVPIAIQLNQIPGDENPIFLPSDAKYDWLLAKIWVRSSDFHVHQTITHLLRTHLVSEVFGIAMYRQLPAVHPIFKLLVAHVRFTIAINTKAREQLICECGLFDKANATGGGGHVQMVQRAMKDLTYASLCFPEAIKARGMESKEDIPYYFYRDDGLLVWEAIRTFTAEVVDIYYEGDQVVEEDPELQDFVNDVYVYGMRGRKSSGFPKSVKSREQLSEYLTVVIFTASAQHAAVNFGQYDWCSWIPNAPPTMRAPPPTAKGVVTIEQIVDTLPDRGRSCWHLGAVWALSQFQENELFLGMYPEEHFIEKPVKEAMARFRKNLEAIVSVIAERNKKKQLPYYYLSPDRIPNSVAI
smiles,measurement,setting,value
N#CC1=C(N)Oc2[nH]c(=O)[nH]c(=O)c2C12c1ccccc1-n1c2nc2ccccc2c1=O (centres undefined),IC50,[1],> 100 µM
same,IC50,HT-29,23.7 µM
Cc1nn(-c2ccccc2)c(-n2ccnc2)c1C1C(C#N)=C(N)Oc2[nH]c(=O)[nH]c(=O)c21 (centres undefined),inhibition at 100 µg/mL,[2],92%
same,MIC,Aspergillus fumigatus [3],200 µg/mL
same,MIC,Vibrio cholerae,662 µg/mL
same,inhibition at 250 µg/mL,[4],95%
same,MIC,Clostridium tetani,100 µg/mL
same,IC50,Plasmodium falciparum,0.97 µg/mL
Cc1nc2c(c(=O)[nH]1)C(c1cccc3ccccc13)c1c(c3ccccc3oc1=O)O2 (centres undefined),selectivity ratio,[5],< 1
same,EC50,[6],3.63 µg/mL
same,EC50,[7],3.63 µg/mL
same,selectivity ratio,[8],< 1
same,CC50,[9],3.63 µg/mL
COc1cc(/C=C/C(=O)C2=C(/C=C/c3ccc(O)c(OC)c3)Oc3[nH]c(=O)[nH]c(=O)c3C2c2ccc([N+](=O)[O-])cc2)ccc1O (centres undefined),IC50,[10],106.8 µM
same,IC50,Alpha-glucosidase,12.41 µM
Cc1nc2c(c(=O)[nH]1)C(c1ccc(Cl)cc1)C=C(c1cc3ccccc3oc1=O)O2 (centres undefined),zone of inhibition at 50000 µg/mL,Staphylococcus aureus,10 mm
same,zone of inhibition at 50000 µg/mL,Streptococcus pneumoniae [11],14 mm
same,zone of inhibition at 50000 µg/mL,Aspergillus fumigatus [12],10 mm
same,zone of inhibition at 50000 µg/mL,Klebsiella pneumoniae,20 mm
N#CC1=C(NC[C@]2(O)O[C@H](O)[C@@H](O)[C@@H](O)[C@H]2O)Oc2[nH]c(=S)[nH]c(=O)c2C1c1ccc(Cl)cc1 (some centres undefined),IC50,cells,3.23 µM
same,IC50,[13],1.66 µM
N=c1c2c(ncn1-c1ccccc1)Oc1[nH]c(=S)[nH]c(=O)c1C2c1ccc(Cl)cc1 (centres undefined),IC50,cells,3.5 µM
same,IC50,[13],1.93 µM
N=c1c2c(ncn1N)Oc1c(c(=O)oc3ccccc13)C2c1cccc2ccccc12 (centres undefined),selectivity ratio,[5],< 1
same,EC50,[6],4.84 µg/mL
same,EC50,[7],4.84 µg/mL
same,selectivity ratio,[8],< 1
same,CC50,[9],4.84 µg/mL
Nc1nc(=O)[nH]c2c1C(c1ccc(Cl)cc1)C=C(c1cc3ccccc3oc1=O)O2 (centres undefined),zone of inhibition at 50000 µg/mL,Staphylococcus aureus,18 mm
same,zone of inhibition at 50000 µg/mL,Streptococcus pneumoniae [11],10 mm
same,zone of inhibition at 50000 µg/mL,Aspergillus fumigatus [12],10 mm
same,MIC,Streptococcus pneumoniae [14],7.8 µg/mL
same,IC50,[15],0.237 µM
CCOC(=O)C1=C(N)Oc2c(c(=O)n(C)c(=O)n2C)C1c1c(C)nn(-c2ccccc2)c1-n1ccnc1 (centres undefined),inhibition at 100 µg/mL,[2],30%
same,MIC,Aspergillus fumigatus [3],200 µg/mL
same,MIC,Escherichia coli,62.5 µg/mL
same,inhibition at 250 µg/mL,[4],84%
same,MIC,Salmonella typhimurium,100 µg/mL
same,MIC,Clostridium tetani,100 µg/mL
